In the oligonucleotide strings, read from the 5' end, every base follows the letter of its sugar. An asterisk marks phosphorothioate; unmarked linkages are phosphodiester. Other units and linkages are bracketed, terminal groups are in braces. A string of capitals states the bases alone. e = 2'-O-(2-methoxyethyl) (MOE); [5mC] = 5-methylcytosine

In series [1] the test system is LN229 cells. As to the kind of experiment: LN229 Orthotopic Model, summary of in vivo studies (Table 7). Also noted: species or system nude mice. The conditions noted are these: for survival benefit: Intratumoral anti-miR-10b alone, cell reads 'No survival benefit' over three lines. The procedure:
(§1) Human gliomablastoma-derived cells growing in culture are trypsinzed, counted, and resuspended PBS. The cells express a fluorescent marker and luciferase insertion that enables monitoring of tumor growth and size via an in vivo imaging system. Approximately 5×10^5 cells, in a volume of 5 ul, are injected into the brain of nude mice. Following intracranial tumor implantation, tumor burden is measured using the IVIS Spectrum In Vivo Imaging System (PerkinElmer), and mice are randomized into treatment groups. Intratumoral (e.g., 0.1-500 ug/tumor), subcutaneous (e.g., 100 mg/kg) or intravenous (e.g., 80 mg/kg) dosing of anti-miR-10b compound begins post-implantation. Tumor burden is measured weekly using the imaging system. Final tumor size and weight are measured at the end of the study.
Three candidate therapeutic agents, RG5579, RG5461, and RG5658 were tested in the subcutaneous and orthotopic glioma models. […] The studies were designed to evaluate subcutaneous administration vs. intratumoral administration in subcutaneous in orthotopic models; efficacy of the anti-miR-10b compound alone and in combination with TMZ; and efficacy of a single injection of anti-miR-10b compound vs multiple injections. The research tool compound RG384124 was also tested.
The results of the in vivo studies are summarized in Table 7 and illustrate the substantial improvement of overall survival following treatment with both anti-miR-10b compound and TMZ. RG5461 and RG5658 improved overall median survival in combination with TMZ treatment.

Series [2] has as its system miR-10b. As to the kind of experiment: luciferase reporter assay for miR-10b in stable Hela cell line. The format is cell-based. Particulars: Hela reporter cells transfected with miR-10b; for Luciferase (avg fold change) 1 nM: 1 nM anti-miR-10b compound; for Luciferase (avg fold change) 10 nM: 10 nM anti-miR-10b compound; for Luciferase (avg fold change) 100 nM: 100 nM anti-miR-10b compound. The procedure:
In vitro potency was evaluated using a luciferase reporter assay. A luciferase reporter plasmid for miR-10b was designed, with a fully complementary miR-10b binding site in the 3′-UTR of the luciferase gene. A stable Hela cell line expressing this luciferase construct was generated. Cells were transfected to introduce miR-10b, which represses the expression of luciferase from the reporter construct. […] Cells were treated with anti-miR-10b compound at concentrations of 1 nM, 10 nM, and 100 nM. […] As shorter compounds, such as 9-mers, are typically not maximally active in the same assay conditions used for longer compounds, shorter compounds were selected based on maximum inhibition relative to appropriate control compounds. In this way, compounds that are diverse in both length and chemical composition were included in further testing.
In general terms: In a reporter assay the amount or activity of a reporter protein is the signal.

Series [3] has as its system MCF7 cells. As to the kind of experiment: cell viability assay (CellTiter-Glo), MCF7 cells. It is filed as cell-based. Particulars: RNAiMAX transfection, 72 hours. The procedure:
(§2) For the cell viability assay, approximately 8,000 cells were plated into each well of a 96-well plate. The following day, cells were transfected with anti-miR-10b compound at doses of 2, 4, 8, 16, 31, 63, 125, 250, and 500 nM, using RNAiMAX™ as the transfection reagent. After 72 hours, cell viability was determined using the CellTiter-Glo® Luminescent Cell Viability Assay. An IC50 was calculated for each compound. The assay was performed using both LN229, U87, MCF7, and HCN2 cells.
For orientation: ATP-based viability assays read luminescence as a measure of living cells.

The subject of series [4] is HCN2 cells. Kind of series: cell viability assay (CellTiter-Glo), HCN2 cells. The conditions noted are these: RNAiMAX transfection, 72 hours. It is filed as cell-based. The procedure:
as §2

Series [5] relates to LN229 cells. Kind of series: cell viability assay (CellTiter-Glo), LN229 cells. The conditions noted are these: RNAiMAX transfection, 72 hours. The format is cell-based, human. The procedure:
as §2

The test system of series [6] is U87 cells. Kind of series: cell viability assay (CellTiter-Glo), U87 cells. It is filed as cell-based. The conditions noted are these: RNAiMAX transfection, 72 hours. The procedure:
as §2

Series [7] relates to LN229 cells. As to the kind of experiment: orthotopic LN229 glioblastoma model, RG5579 alone or with TMZ, survival. The conditions noted are these: intratumoral 40 ug RG5579 Day 21, TMZ daily Days 35-41, nude mice. It is filed as in vivo. The procedure: RG5579 was tested in an orthotopic model of GBM established with LN229 cells.
Human gliomablastoma-derived LN229 cells growing in culture were trypsinized, counted, and resuspended PBS. The cells express a fluorescent marker that enables monitoring of tumor growth and size during treatment. Approximately 5×10^5 cells, in a volume of 5 ul, were injected into the brain of nude mice on Day 0. Mice were randomized into the following treatment groups, with 8 mice per group: (1) PBS; (2) RG5579; (3) PBS+TMZ; and (4) RG5579+TMZ. On Day 21, mice were given an intratumoral injection of either PBS or 40 ug of RG5579. On Days 35-41, TMZ was administered daily. Survival was monitored, and overall median survival was determined.

Series [8] relates to LN229 cells. Kind of series: orthotopic LN229 glioblastoma model, RG5461 and RG5658 alone or with TMZ, survival. It is filed as in vivo. The conditions noted are these: single intratumoral dose Day 21 (20 ug RG5658, 50 ug RG5461), TMZ daily Days 35-41, nude mice. The procedure:
RG5658 and RG5461 were tested in an orthotopic model of GBM established with LN229 cells. Treatments comprised anti-miR-10b compound alone or in combination with TMZ.
Further testing was performed to evaluate the effects of RG5658 and RG5461 treatment in combination with TMZ. Human gliomablastoma-derived LN229 cells growing in culture were trypsinzed, counted, and resuspended PBS. The cells express a fluorescent marker that enables monitoring of tumor growth and size during treatment. Approximately 5×10^5 cells, in a volume of 5 ul, were injected into the brain of nude mice on Day 0. Mice were randomized into the following treatment groups, with 8 mice per group: (1) PBS; (2) RG5461; (3) RG5658; (4) RG5461+TMZ; (5) RG5658+TMZ; and (6) PBS+TMZ. On Day 21, a single dose of anti-miR-10b compound was administered intratumorally at a dose of 20 ug for RG5658 or 50 ug for RG5461. TMZ was administered daily on each of Days 35-41. Survival was monitored, and overall median survival was determined.

Series [9] concerns miR-10b. As to the kind of experiment: PD signature (mRNA of direct miR-10b target genes) in LN229 cells. The format is cell-based, human. The procedure:
To evaluate the on-target pharmacodynamic effects of treatment with anti-miR-10b, 18 genes that are direct targets of miR-10b were identified by next generation sequencing, and the expression of each of these genes following anti-miR-10b treatment was measured. The 18 genes were: ATXN2, ATXN7, BCL6, BDNF, CRLF3, DAZAP1, DVL3, FXR2, GATAD2A, GCLM, GTF2H1, INO80D, MIEF1, NCOA6, NFE2L1, PDE4A, SMAD2, and TET2.
LN229 cells were treated with a concentration of RG5579 ranging from 2 to 500 nM. After 24 hours, RNA was isolated and the mRNA levels of the 18 genes targeted were measured and averaged to provide a pharmacodynamic signature score (PD Signature Score), represented as Log 2 fold-change (Log 2FC) relative to mock-transfection.
Similar studies were conducted with RG5461 and RG5658, using a PD signature of 10 genes (non-overlapping with the 18-gene PD signature above).

Series [10] relates to Human gliomablastoma-derived cells. Kind of series: initial testing in subcutaneous and orthotopic glioma models, single intratumoral dose. The format is in vivo, nude mice. The conditions noted are these: single dose administered intratumorally. The procedure:
Human gliomablastoma-derived cells growing in culture are trypsinzed, counted, and resuspended in a 1:1 mixture of media:growth factor reduced Matrigel. Approximately 10^6 cells, in a volume of 100 ul, are injected subcutaneously into the flank of nude mice. Ten days following subcutaneous tumor implantation, tumor size is measured using calipers, and mice are randomized into treatment groups. Intratumoral (e.g., 5 ug/30 mm^3 tumor), subcutaneous (e.g., 100 mg/kg) or intravenous (e.g., 80 mg/kg) dosing of anti-miR-10b compound begins post-implantation. Tumor size is measured three to five days per week. Final tumor size and weight are measured at the end of the study.
as §1, with “Intratumoral (e.g., 0.1-500 ug/tumor), subcutaneous (e.g., 100 mg/kg) or intravenous (e.g., 80 mg/kg) dosing of anti-miR-10b compound begins post-implantation.” left out

As usually defined, the IC50 is the midpoint of a concentration-inhibition curve. A higher IC50 goes with a need for much substance. With “5′-CACAAATTCGGTTCTACAGGGTA-3′ (antisense e[5mC]*eA*e[5mC]*eA*eA*eA*eT*eT*e[5mC]*eG*eG*eT*eT*e[5mC]*eT*eA*e[5mC]*eA*eG*eG*eG*eT*eA) [RG384124, research tool compound; each nucleoside 2′-O-methoxyethyl, each C 5-methylcytosine, each linkage phosphorothioate]”, the survival benefit result in [1] was “No”. For the same compound, the “Luciferase (avg fold change) 1 nM” value in [2] was 2.8 fold change. In series [2], the “Luciferase (avg fold change) 10 nM” value was 29.5 fold change. Further, the “Luciferase (avg fold change) 100 nM” value in series [2] came out at 55.6 fold change. Moreover, the IC50 in series [3] is 80.5 nM; in series [4], 44.4 nM; in series [5] it was 43 nM; in series [6], 31.3 nM.

On to `Cn1nnc2c(C(N)=O)ncn2c1=O` [TMZ, temozolomide], for which, in series [7], the “Median Overall Survival % increase (relative to PBS)” value is recorded as 27% and the “Median Overall Survival Days” value is 61.5 days. For the same compound, in series [8], the “% increase (relative to PBS) of median survival” value was determined as 22% and the “Median Survival” value came to 67.5 days.

For “UKAKCMAFGFGFGMUKAK (CAAATUCGGTTCTACAGGGTA; LNA/2'-F/2'-OMe modifications, chemistry not fully specified) [RG5658, anti-miR-10b modified oligonucleotide, 9 linked nucleosides]”, the “10-gene PD signature” value in series [9] is on record as “dose-dependent de-repression of a 10-gene PD signature”. For the same compound, the median survival increase in series [1] (Intratumoral anti-miR-10b + TMZ) is 71%. Besides, in [1], the survival benefit result was “No”. Moreover, in [10], the overall survival result is listed as “did not significantly improve overall survival” and the tumor growth entry is “consistently delayed tumor growth”. Moreover, in series [2], the “Luciferase (avg fold change) 1 nM” value was determined as 1.8 fold change, the “Luciferase (avg fold change) 10 nM” value is recorded as 3.7 fold change and the “Luciferase (avg fold change) 100 nM” value is 4.7 fold change. The compound also showed an IC50 in series [3] of 929 nM. This compound showed an IC50 in series [5] of 90.1 nM. In addition, the “Median Survival” value in [8] was 56 days. In series [6], this compound yielded an IC50 of 45.6 nM.

Source of the values: patent publication US20220096517A1, “MicroRNA Compounds and Methods for Modulating MIR-10B Activity” (Regulus Therapeutics Inc., priority 2018, published 2022).
